Data: paper PMC11472313, “Development of Fragment-Based Inhibitors of the Bacterial Deacetylase LpxC with Low Nanomolar Activity” (Journal of Medicinal Chemistry, 2024)
≈ marks a conversion by molar mass, not a printed value.

Experiments:
E. coli LpxC C63A = molecular target: T1, E. coli LpxC C63A (Escherichia coli, UniProt P0A725, C63A); test: fluorescence-based E. coli LpxC C63A enzyme inhibition assay; format: biochemical; conditions: Ki E. coli LpxC C63A, from IC50 via Cheng–Prusoff
T1 construct: made in house; host or cells: E. coli BL21(DE3)
Method: In order to determine the inhibitory activities of the compounds of interest toward E. coli LpxC, a fluorescence-based enzyme assay was deployed, in which the formed deacetylated natural product UDP-3-O-[(R)-3-hydroxymyristoyl]glucosamine (2) is transformed into a fluorescent isoindole with o-phthaldialdehyde and 2-mercaptoethanol.[48],[49] […] The KM of E. coli LpxC C63A was determined experimentally using a mass spectrometry-based LpxC assay (Figure S8, Supporting Information, vide infra).
A fluorescence-based microplate assay for LpxC activity was performed as described by Clements et al.[48] The wells in a black, nonbinding, 96-well fluorescence microplate (Greiner Bio One, Frickenhausen) were filled with 93 μL of 26.9 μM UDP-3-O-[(R)-3-hydroxymyristoyl]-N-acetylglucosamine in assay buffer [40 mM sodium morpholinoethanesulfonic acid (pH 6.0), 80 μM dithiothreitol, 0.02% Brij 35]. In order to assay the inhibitors at final concentrations from 20 nM up to 20 μM, 2 μL of a respective dilution of the compounds in DMSO were added. The addition of 5 μL of a solution of purified LpxC (10 μg mL^–1) in assay buffer led to final concentrations of 25 μM UDP-3-O-[(R)-3-hydroxymyristoyl]-N-acetylglucosamine, 15 nM E. coli LpxC C63A, 2% DMSO, and from 20 nM up to 20 μM inhibitor. The microplate was incubated for 30 min at 37 °C in a plate shaker. Then, the biochemical reaction was stopped by adding 40 μL of 0.625 M sodium hydroxide. The reaction mixture was further incubated for 10 min and neutralized by adding 40 μL of 0.625 M acetic acid. The deacetylated product UDP-3-O-[(R)-3-hydroxymyristoyl]glucosamine was converted into a fluorescing isoindole by adding 120 μL of an o-phthaldialdehyde-2-mercaptoethanol solution, which was prepared by dissolving 10 mg of o-phthaldialdehyde in 1 mL of methanol, diluting the mixture with 24 mL of a sodium borate buffer (0.1 M), and finally adding 2.5 μL of 2-mercaptoethanol.[49] Fluorescence was measured with a TriStar^2 S LB 942 plate reader (Berthold, Bad Wildbad) at 340 nm excitation and 460 nm emission wavelengths. Each assay was performed at least three times on separate days. The IC50 values were calculated via Probit-log concentration graphs with the aid of the software Origin and were subsequently converted into Ki values using the Cheng–Prusoff equation.[75],[76]

E. coli BL21(DE3) [1] = test: MIC, broth microdilution; format: cell-based; conditions: Escherichia coli, 20 h, 37 °C, LB
Method: (§1) Besides measuring the inhibitory activities toward E. coli LpxC C63A, the antibacterial activities of the synthesized hydroxamic acids were evaluated by determining their minimal inhibitory concentrations (MIC) in broth dilution tests as well as by performing disc diffusion assays (Table 1).
(§2) The MIC values of the compounds were determined by means of the microdilution method using 96-well plates.
(§3) The overnight suspension was diluted 1:1000 in fresh LB. 10 μL of a 2-fold dilution series of the compounds in DMSO and 90 μL of LB were dispensed to each well of a 96-well plate. Then, 100 μL of the inoculated medium was added, resulting in 5 × 10^5 cfu mL^–1, 5% DMSO, and a final concentration range of the test compounds between 64 and 0.016 μg mL^–1. The plates were incubated for 20 h at 37 °C. The MIC was defined as the lowest concentration of the compounds that prevented visible growth after incubation. Each assay was performed at least three times on separate days.

E. coli D22 [2] = test: MIC, broth microdilution; format: cell-based; conditions: Escherichia coli, 20 h, 37 °C, LB
Method: as §1, §2, §3

E. coli BL21(DE3) [3] = test: disc diffusion assay; format: cell-based; conditions: 0.15 μmol per 6 mm disc
Method: as §1
(§4) The disc diffusion assays against E. coli BL21(DE3) and the defective strain E. coli D22 were performed as follows: liquid cultures of the bacteria were grown overnight in lysogeny broth (LB)[73] at 37 °C and 200 rpm. 150 μL of an overnight cell suspension was spread evenly onto LB agar plates. 0.15 μmol of each compound (dissolved in 10 or 15 μL DMSO) were applied onto circular filter paper (Ø = 6 mm, Cytiva). Pure DMSO, serving as a negative control, and CHIR-090, serving as a positive control, were also spotted. The agar plates were incubated overnight at 37 °C, and the diameter of the zone of growth inhibition was measured for each compound. Each assay was performed at least three times on separate days.

E. coli D22 [4] = test: disc diffusion assay; format: cell-based; conditions: 0.15 μmol per 6 mm disc
Method: as §1, §4

[5] = test system: K. pneumoniae ATCC 700603; test: disc diffusion assay; format: cell-based, Klebsiella pneumoniae; conditions: 0.15 μmol per 6 mm disc
Method: (§5) In the performed disc diffusion assays, indole derivatives (S)-13h, (S)-13i, and (S)-13j caused promising halos of growth inhibition.
(§6) The disc diffusion assays against E. coli TOP10 (Thermo Fisher, Waltham, USA), E. coli ATCC 35218, K. pneumoniae ATCC 700603, and P. aeruginosa ATCC 27853 were performed as follows: the bacteria were grown overnight on a Columbia blood agar plate (Oxoid, Basingstoke, UK), and one colony was suspended in sterile saline to yield a suspension of 0.5 McFarland standard. Using a sterile swab, the suspension was spread evenly onto Mueller–Hinton agar (Oxoid, Basingstoke, UK). 0.15 μmol of each compound (dissolved in 10 μL DMSO) was applied onto circular 6 mm diameter filter paper disks, which were then placed on the agar. After incubating the agar plates for 20 h at 37 °C, the diameter of the zone of growth inhibition was measured for each compound.

E. coli ATCC 35218 = test: disc diffusion assay; format: cell-based; conditions: 0.15 μmol per 6 mm disc
Method: as §5, §6

E. coli TOP10 = test: disc diffusion assay; format: cell-based; conditions: 0.15 μmol per 6 mm disc
Method: as §5, §6

P. aeruginosa ATCC 27853 = test: disc diffusion assay; format: cell-based; conditions: 0.15 μmol per 6 mm disc
Method: as §5, §6

LasB = molecular target: T2, LasB (Pseudomonas aeruginosa, UniProt Q02RJ6); test: FRET-based LasB in vitro inhibition assay; format: biochemical, P. aeruginosa PA14
T2 construct: The elastase LasB of P. aeruginosa is a secreted metalloprotease; endogenous in cells; host or cells: P. aeruginosa PA14 culture supernatant
Method: Purification of LasB from P. aeruginosa PA14 supernatant and the subsequent performance of the FRET-based in vitro inhibition assay was performed as described previously.[66] The TACE (ADAM-17) inhibitor screening kit was purchased from Sigma-Aldrich (Saint Louis, MO). MMPs 1–3 along with the SensoLyte 520 Generic MMP Activity Kit Fluorimetric were purchased from AnaSpec (Fremont, CA, USA). The assays were performed according to the guidelines of the respective manufacturer. Fluorescence signals were measured using a CLARIOstar plate reader (BMG Labtech, Ortenberg, Germany).

LpxC–9 complex = test: NMR-ILOE (interligand NOESY) of fragment hits with LpxC and 9; conditions: fragment hits binding the LpxC–9 complex by STD and WaterLogsy; 6 μM LpxC
Method: In order to find fragments specifically addressing the UDP-binding pocket, which can be linked to the LpxC inhibitors, a fragment screen was performed against LpxC bound to 9. First, 650 fragments in cocktails of five were tested for binding to the LpxC–9 complex using STD-NMR and WaterLogsy experiments. Then, fragment hits identified as potential binders were tested one by one against the LpxC–9 complex by STD-NMR and WaterLogsy experiments performed under identical experimental conditions. A total of 97 fragment hits were identified as binders, leading to a hit rate of 15%.
Then, NMR-ILOE experiments were performed with selected fragment hits in the presence of LpxC and the unsubstituted hydroxamic acid 9. This allowed the identification of fragments that bind in the enzyme’s UDP-binding pocket near the methylene group in the α-position of the inhibitor’s hydroxamate moiety. Weak interligand NOESY peaks were observed between inhibitor 9 and nine fragments. By contrast, no interligand NOESY peaks were observed between compound 9 and the other ten fragments. […] Unexpectedly, we also observed interligand NOESY between the fragment protons and protons of the morpholino moiety.
Standard 1D and STD NMR spectra were acquired at 20 °C with a Bruker 600 MHz NMR spectrometer equipped with a 5 mm cryoprobe. Parameters for the STD experiments (saturation frequency and saturation time) were identical for all samples. […] STD saturation time was 2 s. WaterLOGSY mixing time was 1.5 s. Two NOESY experiments were recorded with mixing times of 0.6 and 0.3 s. STD and WaterLOGSY spectra were recorded with the same NMR tubes containing 3 μM LpxC, compound 9 at 500 μM, and fragments at 500 μM. For NOESY experiments, NMR tubes contained 6 μM LpxC.
Temperature was set to 293 K for all NMR experiments.

T2 sequence (Q02RJ6 198-498): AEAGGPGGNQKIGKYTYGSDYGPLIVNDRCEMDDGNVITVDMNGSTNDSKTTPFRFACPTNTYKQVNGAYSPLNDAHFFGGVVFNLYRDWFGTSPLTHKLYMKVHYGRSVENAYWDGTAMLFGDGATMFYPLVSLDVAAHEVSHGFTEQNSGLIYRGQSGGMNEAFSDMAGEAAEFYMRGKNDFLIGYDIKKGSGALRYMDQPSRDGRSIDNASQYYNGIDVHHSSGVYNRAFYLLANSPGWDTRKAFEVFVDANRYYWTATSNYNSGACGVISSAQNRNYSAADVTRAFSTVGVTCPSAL
T1 sequence (P0A725 whole entry C63A): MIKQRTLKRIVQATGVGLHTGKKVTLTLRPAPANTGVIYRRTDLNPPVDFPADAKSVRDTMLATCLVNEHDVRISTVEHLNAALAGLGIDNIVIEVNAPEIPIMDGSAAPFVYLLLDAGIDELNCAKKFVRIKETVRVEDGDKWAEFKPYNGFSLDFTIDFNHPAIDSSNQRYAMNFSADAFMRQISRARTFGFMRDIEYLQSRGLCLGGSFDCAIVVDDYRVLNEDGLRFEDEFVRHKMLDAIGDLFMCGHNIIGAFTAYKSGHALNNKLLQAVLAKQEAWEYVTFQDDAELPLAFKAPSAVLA

SMILES: O=C(NC[C@H](OCc1ccc(C#Cc2ccc(CN3CCOCC3)cc2)cc1)C(=O)NO)c1ccc(-c2ccccc2)cc1 [(S)-13b]
- Ki (E. coli LpxC C63A): > 2540 nM
- MIC (E. coli BL21(DE3) [1]): > 16 µg/mL
- MIC (E. coli D22 [2]): 0.13 µg/mL (≈ 0.22 µM)
- Inhibition zone E. coli BL21(DE3) (E. coli BL21(DE3) [3]): ≤6 mm
- Inhibition zone E. coli D22 (E. coli D22 [4]): 11.2 ± 2.9 mm
- Inhibition zone K. pneumoniae ATCC 700603 [5]: <6 mm
- Inhibition zone E. coli ATCC 35218 (E. coli ATCC 35218): <6 mm
- Inhibition zone E. coli TOP 10 (E. coli TOP10): <6 mm
- Inhibition zone P. aeruginosa ATCC 27853 (P. aeruginosa ATCC 27853): <6 mm
- LasB Inhibition at 20 μM (LasB; 20 μM): little to no inhibitory activity
- inhibition at 20 µM (LasB; read-out: LasB Inhibition at 20 μM): < 10%

SMILES: Nc1cnc2ccccc2c1 [F6]
- Inter-Ligand NOESY peaks between the fragment and 9 (LpxC–9 complex): yes

SMILES: Nc1cccc(-c2cnco2)c1 [F17]
- Inter-Ligand NOESY peaks between the fragment and 9 (LpxC–9 complex): no

SMILES: NCc1ccc(-c2ccccc2)cc1 [F11]
- Inter-Ligand NOESY peaks between the fragment and 9 (LpxC–9 complex): yes

SMILES: NC(=O)Cc1c[nH]c2ccc(Cl)cc12 [F4]
- Inter-Ligand NOESY peaks between the fragment and 9 (LpxC–9 complex): yes
